Results: article PMC6332026, “Synthesis and Pharmacochemistry of New Pleiotropic Pyrrolyl Derivatives” (Molecules, 2015)
“Also recorded” adds a separate entry of the source. Marks after values point to notes of the source that are not given here.

How the values were obtained:
[1] = target: T1, COX-2 (Homo sapiens, UniProt P35354); assay: Inhibition of cycloxygenase-2 (colorimetric TMPD assay); conditions: for inhibition at 100 µM: read-out: COX-2 % inhibition; for COX-2 % inhibition: 100 μM
T1 sequence (P35354 18-604): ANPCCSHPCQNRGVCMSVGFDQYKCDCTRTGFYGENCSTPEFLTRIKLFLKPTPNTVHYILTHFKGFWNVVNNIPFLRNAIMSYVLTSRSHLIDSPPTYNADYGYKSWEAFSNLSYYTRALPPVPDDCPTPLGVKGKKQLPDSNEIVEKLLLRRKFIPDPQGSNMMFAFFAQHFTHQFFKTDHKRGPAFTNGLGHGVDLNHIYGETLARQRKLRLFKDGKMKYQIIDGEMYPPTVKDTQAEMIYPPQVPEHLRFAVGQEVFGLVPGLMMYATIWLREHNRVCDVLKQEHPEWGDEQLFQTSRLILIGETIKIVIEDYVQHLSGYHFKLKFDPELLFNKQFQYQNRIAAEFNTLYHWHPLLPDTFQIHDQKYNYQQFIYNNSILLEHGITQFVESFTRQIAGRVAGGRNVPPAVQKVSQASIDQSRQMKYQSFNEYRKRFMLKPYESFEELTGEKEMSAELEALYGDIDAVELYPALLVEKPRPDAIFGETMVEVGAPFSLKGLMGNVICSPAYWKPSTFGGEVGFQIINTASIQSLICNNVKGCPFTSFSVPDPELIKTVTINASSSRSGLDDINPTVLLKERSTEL
Protocol: The inhibition of COX-2, as a peroxidase, was determined by a colorimetric assay with the oxidation of N,N,N′,N′-tetramethyl-p-phenylenediamine (TMPD).
COX-2 inhibitory activity was determined by using arachidonic acid (AA) as a substrate in buffer (0.1 M Tris pH 8.5) and TMPD as a co-substrate.

[2] = Lipophilicity as RM values by reverse-phase thin layer chromatography (RPTLC); format: physicochemical; conditions: methanol/water 75/25 v/v with ammonia drops
Excerpt: Since lipophilicity is a significant physicochemical property determining the absorption, distribution, metabolism and excretion properties (ADME) of drugs, we attempted to determine experimentally the lipophilicity as RM values with reverse-phase thin layer chromatography (RPTLC). Lipophilicity was also theoretically calculated as Clog P values. According to the calculated Clog P values, the most lipophilic compounds were 2iii (6.37) and 2v (6.04). However, this observation was not supported by the RM values, since Compound 2iii presented very low lipophilicity (−0.061). Furthermore, the lipophilicity of Compound 2v could not be determined experimentally under the reported conditions. Attempts to correlate Clog P and RM values failed. From our results (Table 2), it can be concluded that RM values could not be used as a successful relative measure of the overall lipophilic/hydrophilic properties of these molecules. Tentatively, this can be attributed to the different nature of the hydrophilic and lipophilic phases in the two systems. Clog P refers to n-octanol/water, whereas RM in this case refers to methanol/water. Moreover, it is likely that pyrrole derivatives form hydrogen bonds within the hydrophilic phase.
Reverse-phase thin layer chromatography (RPTLC) was used for the determination of RM values. Silica gel plates were saturated with 5% v/v liquid paraffin in petroleum ether, and the mobile phase was methanol/water (75/25 v/v) with the addition of ammonia drops. Spots were detected under UV light. RM values were determined by the corresponding Rf values (from five measurements for each compound) using the equation [43]: RM = log[(1/Rf) − 1](1)

[3] = target: T2, interleukin-6 (IL-6) (Mus musculus, UniProt P08505); assay: Inhibition of interleukin-6 (immunometric double antibody sandwich EIA); format: biochemical; conditions: compound 10 μM
T2 construct: purchased Cayman Item No. 583371
T2 sequence (P08505 25-211): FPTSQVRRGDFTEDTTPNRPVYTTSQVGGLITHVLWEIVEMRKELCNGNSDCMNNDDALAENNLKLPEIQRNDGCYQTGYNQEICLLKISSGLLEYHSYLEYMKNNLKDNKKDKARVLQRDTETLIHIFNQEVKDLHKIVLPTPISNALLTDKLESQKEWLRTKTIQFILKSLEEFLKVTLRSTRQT
Protocol: The assay used for the inhibition of IL-6 is based on an immunometric double antibody method (sandwich technique). […] Both compounds gave satisfactory biological responses, both in high and in low concentrations of IL-6 (Table 8).
The method was based on an immunometric double antibody sandwich technique. Each well of the microwell plate was coated with a specific for mouse IL-6 rat monoclonal antibody. Tested compounds at 10 μΜ and standards were incubated in the wells, and after rinsing, a second monoclonal antibody was added, which was conjugated with biotin and detected the captured IL-6. The recognition of double antibody sandwiches was done with HRP-conjugated streptavidin. The concentration of IL-6 was determined by measuring the enzymatic activity of HRP using the chromogenic substrate TMB (3,3′,5,5′-tetramethylbenzidine). The absorbance of the reaction product was measured at 450 nm, and the intensity of the color was directly proportional to the amount of bound HRP-streptavidin conjugate, which was proportional to the concentration of IL-6.

[4] = test system: carrageenan-induced rat paw edema; assay: Inhibition of rat paw edema induced by carrageenan; format: in vivo, Fischer 344 rats; conditions: intraperitoneally, 3.5 h; for inhibition in vivo at 10 µmol/kg: Rattus norvegicus, ip, 0.01 mmol/kg body weight, read-out: CPE % inhibition of rat paw edema induced by carrageenan
Protocol: The pyrrolyl derivatives, as well as their precursor chalcones were tested in vivo for the inhibition of rat paw edema induced by carrageenan. […] […]. For Compounds 2i, 2iii, 2iv and 2v, we determined their ED50 values. […]. The finding supports the primary idea of this design.
Edema was induced in the right hind paw of Fischer 344 rats (150–200 g). In the study, both males and females were included, with the exemption of pregnant females. The animals, which have been bred in our laboratory, were housed under standard conditions and received a diet of commercial food pellets and water ad libitum during maintenance. One hour before the onset of the experiment, food and water were removed. The tested compounds (dose 0.01 mmol/kg body weight) were diluted in water with a few drops of Tween 80, and they were administered intraperitoneally simultaneously with the intradermal injection of 0.1 mL 2% of carrageenan in water. The animals were euthanatized 3.5 h after the carrageenan administration. The difference between the weight of injected and uninjected paws was calculated for each animal and was compared to control animals, which were treated with water. Indomethacin was used as a reference compound in 0.01 mmol/kg. The results were expressed as the percent inhibition of the edema (CPE %).

[5] = Superoxide radical scavenging activity (non-enzymatic, PMS/NADH, NBT method); conditions: 100 μM
Excerpt: Superoxide anion radical is an active form of oxygen, and it is the product of the one-electron reduction of […] oxygen. Herein, superoxide radicals were formed by mixing phenazine methosulfate (PMS) with NADH and air-oxygen. The production of radicals was estimated with the nitroblue-tetrazolium method (NBT). From the tested pyrroles, Compounds 2i and 2iii were equipotent (57%) scavengers. […] In contrast, the dipole moment appeared to be important. The values of the dipole, as calculated by the program Spartan v.5.1.3.
The superoxide anion radicals were produced non-enzymatically by mixing phenazine methosulfate (PMS) with NADH and air-oxygen. The production of superoxide radicals was estimated with the nitroblue-tetrazolium (NBT) method with 3 μΜ PMS, 78 μΜ NADH and 25 μΜ NBT in 19 μΜ phosphate buffer pH 7.4. The absorbance was measured at 560 nm at room temperature. The tested compounds were added in the mixture 2 min before the addition of NADH [52].

[6] = target: COX-1 (Homo sapiens, UniProt P23219); assay: Inhibition of COX-1 (preliminary results); format: biochemical
Sequence of COX-1 (P23219 24-599): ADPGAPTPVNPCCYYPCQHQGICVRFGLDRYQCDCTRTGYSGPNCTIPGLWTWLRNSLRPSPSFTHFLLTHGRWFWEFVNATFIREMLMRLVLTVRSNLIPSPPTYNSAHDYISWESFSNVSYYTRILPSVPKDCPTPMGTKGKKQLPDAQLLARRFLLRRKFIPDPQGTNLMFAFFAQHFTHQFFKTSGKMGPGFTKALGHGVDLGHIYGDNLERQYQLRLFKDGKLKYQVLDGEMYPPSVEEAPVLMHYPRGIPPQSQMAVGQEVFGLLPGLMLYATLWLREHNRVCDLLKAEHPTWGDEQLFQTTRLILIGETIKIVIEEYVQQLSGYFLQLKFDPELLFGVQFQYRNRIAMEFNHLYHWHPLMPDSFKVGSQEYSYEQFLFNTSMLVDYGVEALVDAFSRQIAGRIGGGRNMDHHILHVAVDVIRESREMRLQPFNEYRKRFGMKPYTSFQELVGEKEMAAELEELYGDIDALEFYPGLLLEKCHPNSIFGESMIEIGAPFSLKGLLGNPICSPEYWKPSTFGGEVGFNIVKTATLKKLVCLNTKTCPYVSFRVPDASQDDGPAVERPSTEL
Excerpt: More experiments are in progress to delineate accurately the inhibition profile.

Structure (SMILES) | inhibition at 100 µM [1] | RM [2] | inhibition at 10 µM ([3]; IL-6 187.5 pg/mL) | inhibition at 10 µM ([3]; IL-6 375.0 pg/mL) | inhibition at 10 µM ([3]; IL-6 750.0 pg/mL) | inhibition at 10 µM ([3]; IL-6 1500 pg/mL) | ED50 (carrageenan rat paw edema) [4] | O2^•− % superoxide radical scavenging activity [5] | COX-2 % inhibition [1] | inhibition at 100 µM [6] | inhibition in vivo at 10 µmol/kg [4]
O=C(c1cccs1)c1c[nH]cc1-c1cccc(Oc2ccccc2)c1 [Compound 2i, [4-(3-Phenoxyphenyl)-1H-pyrrol-3-yl](thien-2-yl)methanone] | 67.2% | 0.091 | 99% | 99% | 98% | 99% | 0.061 ^c mmol/kg Body Weight | 57% |  |  | 
O=C(c1cccs1)c1c[nH]cc1-c1ccc(OCc2ccc(Br)cc2)cc1 [Compound 2iii, (4-{4-[(4-Bromobenzyl)oxy]phenyl}-1H-pyrrol-3-yl)(thien-2-yl)methanone] |  | −0.061 |  |  |  |  | 0.052 mmol/kg Body Weight | 57% | inactive; also recorded: without any activity | 75% | 89%
O=C(c1ccccc1)c1c[nH]cc1-c1cccc2ccccc12 [Compound 2iv, [4-(Naphth-1-yl)-1H-pyrrol-3-yl](phenyl)methanone] |  | −0.149 |  |  |  |  |  | 76% | inactive |  | 75%
O=C(c1ccc(Cl)cc1)c1c[nH]cc1-c1cccc2ccccc12 [Compound 2v, (4-Chlorophenyl)[4-(naphth-1-yl)-1H-pyrrol-3-yl]methanone] | 81% |  |  | 99% | 99% | 100% | 0.063 mmol/kg Body Weight | inactive |  | 75% | 78%
